The target in this assay is High affinity nerve growth factor receptor (Homo sapiens, UniProt P04629). Nature of the assay: Inhibitory Activity of Compounds Against TRKA and TRKA(F589L) Kinases. On the procedure: Kinase Assay Process: 1× Kinase buffer was prepared. […] 10 μL of the 2.5× final concentration kinase solution was added to the compound wells and the positive control wells, and 10 μL of 1× Kinase buffer was added to the negative control wells. The plate was centrifuged at 1000 rpm for 30 seconds, vortexed for mixing, and then incubated at room temperature for 10 minutes. A mixture of 5/3× final concentration of ATP and Kinase Substrate 22 was prepared using 1× Kinase buffer. 15 μL of the mixture of the 5/3× final concentration ATP and the substrate was added to initiate the reaction, the 384-well plate was centrifuged at 1000 rpm for 30 seconds, vortexed for mixing, and incubated at room temperature for the required time. 30 μL of the termination solution was added to stop the kinase reaction, the plate was centrifuged at 1000 rpm for 30 seconds, and vortexed for mixing. The conversion rate was measured using the Caliper EZ Reader.

Molecules are shown by their SMILES.

Chain of High affinity nerve growth factor receptor (P04629 whole entry): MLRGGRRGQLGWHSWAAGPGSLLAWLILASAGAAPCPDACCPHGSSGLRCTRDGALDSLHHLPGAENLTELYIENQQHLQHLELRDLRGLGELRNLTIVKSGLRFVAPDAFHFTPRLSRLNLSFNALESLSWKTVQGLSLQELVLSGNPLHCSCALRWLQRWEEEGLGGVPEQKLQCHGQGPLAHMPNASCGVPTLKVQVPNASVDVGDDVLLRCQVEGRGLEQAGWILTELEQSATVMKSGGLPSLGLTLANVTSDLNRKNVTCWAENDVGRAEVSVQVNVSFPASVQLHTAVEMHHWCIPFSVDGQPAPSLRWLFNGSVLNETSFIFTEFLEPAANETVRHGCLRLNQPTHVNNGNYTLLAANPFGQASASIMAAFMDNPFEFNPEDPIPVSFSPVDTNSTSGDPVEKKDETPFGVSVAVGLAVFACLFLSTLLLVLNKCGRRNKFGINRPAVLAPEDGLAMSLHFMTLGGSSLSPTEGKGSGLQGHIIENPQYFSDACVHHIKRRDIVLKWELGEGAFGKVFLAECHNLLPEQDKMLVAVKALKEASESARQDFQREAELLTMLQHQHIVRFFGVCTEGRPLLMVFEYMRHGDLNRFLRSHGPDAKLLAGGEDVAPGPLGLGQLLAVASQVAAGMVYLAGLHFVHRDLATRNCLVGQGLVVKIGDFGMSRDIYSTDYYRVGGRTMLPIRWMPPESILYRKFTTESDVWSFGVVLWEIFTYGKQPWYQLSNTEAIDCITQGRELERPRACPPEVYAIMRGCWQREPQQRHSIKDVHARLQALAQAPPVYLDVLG

In the case of `Fc1cnc2c(c1)[C@H]1CCCN1c1ccc3ncc(n3n1)-c1cc(ncn1)CCO2` [US20260028352, Example I-71], the IC50 was under 3 nM.
Turning to `Fc1ccc2c(c1)[C@H]1C[C@H](F)CN1c1ccc3ncc(n3n1)-c1cc(ccn1)CCO2` [US20260028352, Example I-56], the IC50 is under 3 nM.
As to `Fc1ccc2c(c1)[C@H]1CCCN1c1ccc3ncc(n3n1)-c1nccc(n1)CCO2` [US20260028352, Example I-92], the IC50 was under 3 nM.
In the case of `Fc1cnc2c(c1)[C@H]1CCCN1c1ccc3ncc(n3n1)-c1cc(ccn1)CO2` [US20260028352, Example I-51] it was under 3 nM.
Under `Fc1ccc2c(c1)[C@H]1C[C@H](F)CN1c1ccc3ncc(n3n1)-c1cc(cnn1)CO2` [US20260028352, Example I-68] stands under 3 nM; under `C[C@@H]1Cc2ccnc(c2)-c2cnc3ccc(nn23)N2CCC[C@@H]2c2cc(F)cnc2O1` [US20260028352, Example I-38], under 3 nM.
`Fc1ccc2c(c1)[C@H]1C[C@H](F)CN1c1ccc3ncc(n3n1)-c1cc(ncn1)CO2` [US20260028352, Example I-58]: the IC50 is under 3 nM.
Take `Fc1ccc2c(c1)[C@H]1C[C@H](F)CN1c1ccc3ncc(n3n1)-c1cc(ncn1)CCO2` [US20260028352, Example I-70]: the IC50 was under 3 nM.
The molecule `Fc1cnc2c(c1)[C@H]1C[C@H](F)CN1c1ccc3ncc(n3n1)-c1cc(cnn1)CCO2` [US20260028352, Example I-88] registered an IC50 of under 3 nM.
In the case of `Fc1cnc2c(c1)[C@H]1C[C@H](F)CN1c1ccc3ncc(n3n1)-c1cc(ccn1)CO2` [US20260028352, Example I-60], the IC50 was under 3 nM.
In the case of `Fc1cnc2c(c1)[C@H]1CCCN1c1ccc3ncc(n3n1)-c1cc(ncn1)CO2` [US20260028352, Example I-59] it was under 3 nM; in that of `Fc1ccc2c(c1)[C@H]1C[C@H](F)CN1c1ccc3ncc(n3n1)-c1cc(ccn1)CO2` [US20260028352, Example I-50], under 3 nM.
`CC1(C)Nc2ccc3ncc(n3n2)-c2cc(ccn2)COc2ccc(F)cc21` [US20260028352, Example I-48]: the IC50 is under 3 nM.
`C[C@H]1Nc2ccc3ncc(n3n2)-c2cc(ccn2)N2CC[C@@H](C2)Oc2ccc(F)cc21` [US20260028352, Example I-42]: the IC50 is under 3 nM.
The molecule `Fc1cnc2c(c1)[C@H]1CCCN1c1ccc3ncc(n3n1)-c1nccc(n1)CCO2` [US20260028352, Example I-94] showed an IC50 of under 3 nM.
In turn, `Fc1cnc2c(c1)[C@H]1C[C@H](F)CN1c1ccc3ncc(n3n1)-c1cc(ncn1)CCO2` [US20260028352, Example I-72] came in with an IC50 of under 3 nM.
In turn, `C[C@H]1Nc2ccc3ncc(n3n2)-c2cc(ccn2)CCOc2ncc(F)cc21` [US20260028352, Example I-75] had an IC50 of under 3 nM.
With `C[C@H]1Nc2ccc3ncc(n3n2)-c2cc(ncn2)COc2ncc(F)cc21` [US20260028352, Example I-77], the IC50 is under 3 nM.
In the case of `Fc1ccc2c(c1)[C@H]1C[C@H](F)CN1c1ccc3ncc(n3n1)-c1cc(cnn1)CCO2` [US20260028352, Example I-86] it was under 3 nM; in that of `C[C@H]1Nc2ccc3ncc(n3n2)-c2nccc(n2)CCOc2ccc(F)cc21` [US20260028352, Example I-84], under 3 nM.
In the case of `Fc1cnc2c(c1)[C@H]1C[C@H](F)CN1c1ccc3ncc(n3n1)-c1nccc(n1)CO2` [US20260028352, Example I-64], the IC50 is under 3 nM.
In the case of `C[C@@H]1Cc2ccnc(c2)-c2cnc3ccc(nn23)N2C[C@@H](F)C[C@@H]2c2cc(F)cnc2O1` [US20260028352, Example I-40] it was under 3 nM.
In the case of `C[C@H]1Nc2ccc3ncc(n3n2)-c2nccc(n2)CCOc2ncc(F)cc21` [US20260028352, Example I-83] it was under 3 nM.
Consider `Fc1cnc2c(c1)[C@H]1CCCN1c1ccc3ncc(n3n1)-c1nccc(n1)CO2` [US20260028352, Example I-63], for which the IC50 was under 3 nM.

For orientation: IC50 means the concentration that gives 50% inhibition. Read a high IC50 as a need for much substance.

Source of the values: BindingDB's records for patent US20260028352 (Suzhou Langrui Biopharmaceutical, 2026).
